Values quoted from earlier work in patent publication US20060210645A1, “Pharmaceutically acceptable carrier for ophthalmic compositions” (priority 2005, published 2006).

Key:
[1] = relative to methyltestosterone
[2] = relative to methyltestosterone; remark: listed apart in the source

C[C@]12COC(=O)C[C@@H]1CC[C@@H]1[C@@H]2CC[C@@]2(C)[C@H]1CC[C@]2(C)O [oxandrolone, 17 alpha-methyl-17β-hydroxy-2-oxa-5 alpha-androstan-3-one]
androgenic activity, % of that of methyltestosterone [1]: 24%
anabolic activity, % of that of methyltestosterone [2]: 322%
